Measurements reported in patent US20240139170A1, “TOPICAL FORMULATIONS OF A JAK 1/3 INHIBITOR AND METHODS OF USE THEREOF FOR TREATMENT OF ATOPIC DERMATITIS AND OTHER SKIN CONDITIONS” (ACLARIS THERAPEUTICS, INC., priority 2021, published 2024).

Assay: Phase 2a study, plasma pharmacokinetics
Assay type: in vivo, human
Experimental: PK blood draws assessed systemic exposure.
The topical formulation was applied topically twice per day, approximately 8 to 12 hours apart. Up to 8 mL, 1 mL at a time, is applied to an identified AD target area of the subject and rubbed into said area by the subject to achieve a thin film on the skin. Less than 8 mL may be used if less is required to fully cover the identified AD target area. Subjects document symptoms of AD, such as itching, on a daily basis. Subjects were asked to abstain from washing the treated area within 6 hours after application, minimize sun exposure, refrain from using moisturizers, emollients, and sunscreen on the treatment areas, and refrain from activities that would cause profuse sweating (e.g., exercise) for a period of 6 hours after each application. The study ran 4 weeks. On days 1, 8, and 15, a pharmacokinetic sample (e.g., blood) was collected from each subject about 2 hours after application of the topical formulation. On day 28, the following pharmacokinetic samples were collected: • Subgroup 1: One sample before application and one sample at 0.5 to 2.5 hours post application • Subgroup 2: One sample at 2.5 to 5 hours post application and one sample at least 2 hours later • Subgroup 3: One sample at 5 to 8 hours post application and one sample at least 2 hours later (prior to the subsequent application)

CCOC(=O)c1cnc2[nH]ccc2c1N[C@@H]1CCCN(C(=O)CC#N)C1 [Compound I, ethyl (R)-4-((1-(2-cyanoacetyl)piperidin-3-yl)amino)-1H-pyrrolo[2,3-b]pyridine-5-carboxylate]
Mean drug levels in plasma relative to IC50 (2% BID topical, 4 weeks): ≤ 5 % of the IC50
Plasma samples with Compound I levels below the lower limit of quantitation of 0.1 ng/mL (4-week topical treatment, 2% BID): Greater than 86%
Plasma samples with concentration of the active compound below 1 ng/ml (4-week topical treatment, treatment arm): greater than 86%
Average plasma concentration (Day 1, 2 hr post dose): 1.604 ng/mL
Average plasma concentration (Day 8, 2 hr post dose): 0.519 ng/mL
Average plasma concentration (Day 28, pre dose): 0.328 ng/mL
All plasma concentrations relative to IC50 (IC50=36 ng/mL, 2% BID topical): less than half of the IC50
Plasma Compound I CONC (subject 004-0002, Day 1, hour 0 Predose, LLOQ 0.100): <LLOQ
Plasma Compound I CONC (subject 004-0002, Day 1, hour 2, LLOQ 0.100): <LLOQ
Plasma Compound I CONC (subject 004-0002, Day 8, hour 2): 0.229 ng/mL
Plasma Compound I CONC (subject 004-0002, Day 15, hour 2, LLOQ 0.100): <LLOQ
Plasma Compound I CONC (subject 004-0002, Day 28/ET, 0.5-2.5 hr): 0.168 ng/mL
Plasma Compound I CONC (subject 004-0002, Day 28/ET, hour 0 Predose): 0.165 ng/mL
Plasma Compound I CONC (subject 004-0004, Day 1, hour 0 Predose, LLOQ 0.100): <LLOQ
Plasma Compound I CONC (subject 004-0004, Day 1, hour 2, LLOQ 0.100): <LLOQ
Plasma Compound I CONC (subject 004-0004, Day 8, hour 0 Predose, LLOQ 0.100): <LLOQ
Plasma Compound I CONC (subject 004-0004, Day 8, hour 2, LLOQ 0.100): <LLOQ
Plasma Compound I CONC (subject 004-0004, Day 15, hour 2, LLOQ 0.100): <LLOQ
Plasma Compound I CONC (subject 004-0004, Day 28/ET, 5-8 hr, LLOQ 0.100): <LLOQ
Plasma Compound I CONC (subject 004-0004, Day 28/ET, 7-10 hr): 0.104 ng/mL
Plasma Compound I CONC (subject 004-0008, Day 1, hour 2): 1.62 ng/mL
Plasma Compound I CONC (subject 004-0008, Day 8, hour 0 Predose): 0.616 ng/mL
Plasma Compound I CONC (subject 004-0008, Day 8, hour 2): 0.639 ng/mL
Plasma Compound I CONC (subject 004-0008, Day 15, hour 0 Predose): 0.740 ng/mL
Plasma Compound I CONC (subject 004-0008, Day 15, hour 2): 0.512 ng/mL
Plasma Compound I CONC (subject 004-0008, Day 28/ET, 2.5-5 hr): 0.543 ng/mL
Plasma Compound I CONC (subject 004-0008, Day 28/ET, 4.5-7 hr): 0.441 ng/mL
Plasma Compound I CONC (subject 012-0001, Day 1, hour 0 Predose, LLOQ 0.100): <LLOQ
Plasma Compound I CONC (subject 012-0001, Day 1, hour 2): 14.9 ng/mL
Plasma Compound I CONC (subject 012-0001, Day 8, hour 2): 1.50 ng/mL
Plasma Compound I CONC (subject 012-0001, Day 15, hour 0 Predose): 0.521 ng/mL
Plasma Compound I CONC (subject 012-0001, Day 15, hour 2): 1.05 ng/mL
Plasma Compound I CONC (subject 012-0001, Day 28/ET, 0.5-2.5 hr): 3.71 ng/mL
Plasma Compound I CONC (subject 012-0001, Day 28/ET, hour 0 Predose): 1.23 ng/mL
Plasma Compound I CONC (subject 012-0017, Day 1, hour 0 Predose, LLOQ 0.100): <LLOQ
Plasma Compound I CONC (subject 012-0017, Day 1, hour 2): 2.45 ng/mL
Plasma Compound I CONC (subject 012-0017, Day 8, hour 0 Predose): 0.845 ng/mL
Plasma Compound I CONC (subject 012-0017, Day 8, hour 2): 0.459 ng/mL
Plasma Compound I CONC (subject 012-0017, Day 15, hour 0 Predose): 11.1 ng/mL
Plasma Compound I CONC (subject 012-0017, Day 15, hour 2): 5.26 ng/mL
Plasma Compound I CONC (subject 012-0017, Day 28/ET, 5-8 hr): 0.536 ng/mL
Plasma Compound I CONC (subject 012-0017, Day 28/ET, 7-10 hr): 0.704 ng/mL
Plasma Compound I CONC (subject 13-0001, Day 1, hour 0 Predose, LLOQ 0.100): <LLOQ
Plasma Compound I CONC (subject 13-0001, Day 1, hour 2): 12.9 ng/mL
Plasma Compound I CONC (subject 13-0001, Day 8, hour 0 Predose): 0.914 ng/mL
Plasma Compound I CONC (subject 13-0001, Day 8, hour 2): 1.79 ng/mL
Plasma Compound I CONC (subject 13-0001, Day 15, hour 2): 1.86 ng/mL
Plasma Compound I CONC (subject 13-0001, Day 28/ET, 0.5-2.5 hr): 3.99 ng/mL
Plasma Compound I CONC (subject 13-0001, Day 28/ET, hour 0 Predose): 0.530 ng/mL
Highest plasma concentration in any subject (whole study): ≤ 15 ng/mL
Samples with plasma concentrations > 1/10th the IC50 (whole study): 6 total samples
Subjects with plasma concentrations > 1/10th the IC50 (whole study): 3 subjects
